Target: T1, TANK-2 enzyme (Homo sapiens, UniProt Q9H2K2)
T1 construct: made in house
T1 sequence (Q9H2K2 1-1166): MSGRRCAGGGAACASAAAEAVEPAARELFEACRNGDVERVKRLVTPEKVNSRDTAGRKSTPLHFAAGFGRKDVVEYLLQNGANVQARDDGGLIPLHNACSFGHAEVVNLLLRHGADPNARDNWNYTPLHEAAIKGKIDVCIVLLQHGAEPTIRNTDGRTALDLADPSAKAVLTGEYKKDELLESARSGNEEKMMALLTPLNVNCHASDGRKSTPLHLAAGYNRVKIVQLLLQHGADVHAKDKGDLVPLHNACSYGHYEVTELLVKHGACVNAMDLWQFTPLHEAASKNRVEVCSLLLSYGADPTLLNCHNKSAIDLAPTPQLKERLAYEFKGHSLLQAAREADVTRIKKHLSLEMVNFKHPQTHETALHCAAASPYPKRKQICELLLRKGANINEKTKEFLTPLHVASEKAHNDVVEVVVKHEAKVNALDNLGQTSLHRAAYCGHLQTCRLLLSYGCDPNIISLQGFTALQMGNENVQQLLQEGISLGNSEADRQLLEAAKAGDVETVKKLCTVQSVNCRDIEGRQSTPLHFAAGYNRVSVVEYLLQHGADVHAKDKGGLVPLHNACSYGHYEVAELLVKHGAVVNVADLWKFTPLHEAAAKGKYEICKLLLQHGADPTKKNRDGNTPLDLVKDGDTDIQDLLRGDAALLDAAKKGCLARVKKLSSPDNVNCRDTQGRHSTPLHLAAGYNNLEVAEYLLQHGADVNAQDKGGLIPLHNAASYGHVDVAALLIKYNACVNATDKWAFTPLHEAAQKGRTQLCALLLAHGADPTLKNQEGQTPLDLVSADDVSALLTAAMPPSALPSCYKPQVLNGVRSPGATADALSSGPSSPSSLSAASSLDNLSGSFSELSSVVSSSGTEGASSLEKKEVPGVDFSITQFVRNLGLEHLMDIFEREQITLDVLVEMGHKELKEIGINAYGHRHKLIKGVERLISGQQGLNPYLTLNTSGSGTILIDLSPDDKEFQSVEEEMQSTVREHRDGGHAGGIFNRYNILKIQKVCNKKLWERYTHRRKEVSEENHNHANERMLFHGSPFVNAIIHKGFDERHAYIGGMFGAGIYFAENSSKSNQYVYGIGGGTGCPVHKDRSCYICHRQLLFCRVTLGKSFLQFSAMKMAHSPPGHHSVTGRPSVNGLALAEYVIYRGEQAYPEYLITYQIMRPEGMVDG
Assay: In vitro Scintillation Proximity Assay (SPA) for TANK-2 inhibitory activity
Type: biochemical
Conditions: read-out: in vitro SPA assay TANK-2 pIC50 (converted)
Outline: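 TANK-2 (8 μg/ml final) auto-poly(ADP-ribosyl)ation with [3H]-NAD+/NAD donor was run in Ni flash plates in Tris/HCl pH 7.4 buffer with DTT and MgCl2, 120 min at room temperature, then stopped with excess NAD and scintillation-counted. Blank-corrected cpm was expressed as % of enzyme control, and IC50 was linearly interpolated and reported as pIC50.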

CCc1cc2ccc(C(C)(C#N)CCOc3ccc(C)cc3)cc2[nH]c1=O (stereo not drawn) [Compound 149]
IC50: 200 nM

CCc1cc2ccc(C(C)(C#N)CCOc3cccc(Cl)c3)cc2[nH]c1=O (stereo not drawn) [Compound 151]
IC50: 200 nM

CCc1cc2ccc(C(C)(C#N)CCOc3ccccc3Cl)cc2[nH]c1=O (stereo not drawn) [Compound 152]
IC50: 126 nM

CCc1cc2ccc(C(C)(C#N)CCOc3ccccc3Br)cc2[nH]c1=O (stereo not drawn) [Compound 153]
IC50: 79.4 nM

CCc1cc2ccc(C(C)(C#N)CCOc3ccc(Cl)cc3Cl)cc2[nH]c1=O (stereo not drawn) [Compound 154]
IC50: 200 nM

CCc1cc2ccc(C(C)(C#N)CCOc3ccc(SC)cc3)cc2[nH]c1=O (stereo not drawn) [Compound 155]
IC50: 126 nM

CCc1cc2ccc(C(C)(C#N)CC3CN(C)c4ccccc4O3)cc2[nH]c1=O (stereo not drawn) [Compound 156]
IC50: 398 nM

CCc1cc2ccc(C(C)(C#N)CCOc3ccc4ccccc4c3)cc2[nH]c1=O (stereo not drawn) [Compound 157]
IC50: 316 nM

CCc1cc2ccc(C(C)(C#N)CCOc3cccc4ccccc34)cc2[nH]c1=O (stereo not drawn) [Compound 158]
IC50: 501 nM

CCc1cc2ccc(C(C)(C#N)CCOc3ccccc3C(C)=O)cc2[nH]c1=O (stereo not drawn) [Compound 159]
IC50: 251 nM

CCc1cc2ccc(C(C)(C#N)CCOc3ccc(Br)cc3)cc2[nH]c1=O (stereo not drawn) [Compound 160]
IC50: 316 nM

CCc1cc2ccc(C(C)(C#N)CCOc3ccc(C#N)cc3)cc2[nH]c1=O (stereo not drawn) [Compound 161]
IC50: 158 nM

CCc1cc2ccc(C(C)(C#N)CCOc3ccc4oc(C)c(C)c4c3)cc2[nH]c1=O (stereo not drawn) [Compound 162]
IC50: 158 nM

CCc1cc2ccc(C(C)(C#N)CCOc3cccc4c3OCCO4)cc2[nH]c1=O (stereo not drawn) [Compound 163]
IC50: 200 nM

CCc1cc2ccc(C(C)(C#N)Cc3cccc(CCC#N)c3)cc2[nH]c1=O (stereo not drawn) [Compound 165]
IC50: 79.4 nM

CCc1cc2ccc(C(C#N)(CCOc3ccccc3)C3CC3)cc2[nH]c1=O (stereo not drawn) [Compound 166]
IC50: 126 nM

CCc1cc2ccc(C(C)(C#N)CCOc3ccc(C(C)(C)C)cc3)cc2[nH]c1=O (stereo not drawn) [Compound 167]
IC50: 794 nM

CCc1cc2ccc(C(C)(C#N)CC#Cc3cccc(F)c3)cc2[nH]c1=O (stereo not drawn) [Compound 184]
IC50: 2510 nM

Cc1cc2ccc([C@@](C)(C#N)[C@@H]3CCc4cc(C#N)ccc43)cc2[nH]c1=O [Compound 245]
IC50: 1000 nM

CCc1cc2ccc([C@](C)(C#N)C[C@@H]3CCc4cc(C)ccc4O3)cc2[nH]c1=O [Compound 251]
IC50: 316 nM

CCc1cc2ccc([C@@](C)(C#N)C[C@@H]3CCc4cc(C)ccc4O3)cc2[nH]c1=O [Compound 252]
IC50: 794 nM

CCc1cc2ccc(C(C#N)(CC)CCOc3ccc(C#N)cc3)cc2[nH]c1=O (stereo not drawn) [Compound 271]
IC50: 501 nM

Cc1cc2ccc([C@@](C)(C#N)[C@H]3CCc4cc(C#N)ccc43)cc2[nH]c1=O [Compound 389]
IC50: 3160 nM

CCc1cc2ccc(C(C#N)(CC)C3CCc4ccc(F)cc43)cc2[nH]c1=O (stereo not drawn) [Compound 391]
IC50: 631 nM

Reference: patent US8778966B2, “Quinolinone derivatives as PARP and tank inhibitors” (Janssen Pharmaceutica, NV, priority 2007, dated 2014)
